{"source": "PubChem BioAssay AID1963970", "about": "(Molecular Pharmacology Branch, DTP, NCI, 2024);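 also: viability read 7 days after compound addition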", "tested_on": "931267-113-T-J1-PDC multicell spheroid viability", "experiment": "Anticancer human tumor 931267-113-T-J1-PDC patient-derived colon adenocarcinoma cell line growth inhibition [PI3K]", "conditions": "for IC50: curve of first compound; for viability, T/C: stronger effect = lower value", "excerpt": "Combinatorial screen of targeted agents with the PI3K inhibitors inavolisib, alpelisib, duvelisib, and copanlisib in multi-cell type tumor spheroids\nA high-throughput screen of multi-cell type tumor spheroids was designed to identify active combinations of targeted small molecules and PI3K pathway inhibitors. Complex spheroids include a stromal component modeled by human endothelial cells (HUVEC) and fibroblasts modeled by human mesenchymal stem cells (MSCs). The concentration ranges selected for each drug and investigational agent were based upon clinically achievable concentrations if the clinical Cmax of the agent was known.\nCompounds. The drugs and investigational agents: inavolisib (NSC800729), alpelisib (NSC765974), duvelisib (NSC772469), copanlisib (NSC816437), ipatasertib (NSC767898), afuresertib (NSC778305), talazoparib (NSC767125), sapanisertib (NSC764658), selumetinib (NSC741078), tovorafenib (DAY101, NSC766906), vemurafenib (NSC761431), ravoxertinib (NSC781343), sotorasib (NSC818433), MRTX1133 (NSC 836407), abemaciclib (NSC 768073), palbociclib (NSC758247), venetoclax (NSC 766270), SY5609 (NSC837396), enzalutamide (NSC755605), and darolutamide (NSC825331), were obtained from the National Cancer Institute (NCI) Developmental Therapeutics Program Chemical Repository. The FDA-approved anticancer drug set is available from the NCI Developmental Therapeutics Program. […] The stock solutions were prepared in dimethyl sulfoxide (DMSO, Sigma-Aldrich, St. Louis, MO, cat. D2650) at 800-fold the tested concentration and stored at -70 degrees C prior to their use. All drugs and investigational agents were tested over a range starting from a high concentration at or near the clinical Cmax and decreasing in half-log increments. If the clinical Cmax for an agent had not been determined, the highest concentration tested was 10 microM.\nCell Culture. All cells were maintained in an incubator at 37 degrees C and 5% CO2 with 95% humidity. The PDC lines were cultured according to standard operating procedures established by the NCI PDMR (https://pdmr.cancer.gov/sops/default.htm). All PDCs were thawed and cultured in Matrigel-coated flasks prepared with a working solution of 1X Ham's F-12 nutrient mix, without supplementation (Invitrogen, Waltham, MA, cat. 11765054), 100 U/mL penicillin-streptomycin (Invitrogen, cat. 15140122), and 2.5% Matrigel (Corning Inc., Corning, NY, cat. 354248) for the first three passages. The 354836-022-R-J1-PDC, 475296-252-R-J1-PDC, and 997726-040-R-J2-PDC lines were cultured in 6A media, which includes advanced DMEM/F-12 (Thermo Fisher Scientific, cat. 12634028), 10 mM HEPES (Thermo Fisher Scientific, cat. 15630080), 1X GlutaMAX supplement (Thermo Fisher Scientific, cat. 35050061), 0.1 mg/mL primocin (InvivoGen, San Diego, CA, cat. ant-pm-2), 10% defined fetal bovine serum, heat inactivated (HyClone Laboratories Inc., Logan, UT, cat. SH30070.03HI), 50% L-WRN conditioned media (ATCC, cat. CRL-3276), 1.25 mM N-Acetyl-L-cysteine (Sigma-Aldrich, cat. A9165), 10 mM nicotinamide (Sigma-Aldrich, cat. N0636), 1X B-27 supplement (Thermo Fisher Scientific, cat. 17504044), 1X N-2 supplement (Thermo Fisher Scientific, cat. 17502048), and 10 microM Y-27632 dihydrochloride (Tocris Bioscience, Bristol, United Kingdom, cat. 1254). The 624824-186-R-J2-PDC line was cultured in 6C/Colon 1B media, which includes all 6A media components plus 50 ng/mL human EGF recombinant protein (Thermo Fisher Scientific, cat. PHG0311). […]", "data": [{"smiles": "CCCS(=O)(=O)Nc1ccc(F)c(C(=O)c2c[nH]c3ncc(-c4ccc(Cl)cc4)cc23)c1F", "note": "+ CC(Nc1ccc2c(c1)OCCn1cc(N3C(=O)OCC3C(F)F)nc1-2)C(N)=O", "values": [{"measurement": "IC50", "setting": "second compound 0.00316 µM", "result": 6.11, "unit": "µM"}, {"measurement": "IC50", "setting": "second compound 0.01 µM", "result": 6.34, "unit": "µM"}, {"measurement": "IC50", "setting": "second compound 0.0316 µM", "result": 6.06, "unit": "µM"}, {"measurement": "IC50", "setting": "second compound 0.1 µM", "result": 5.73, "unit": "µM"}, {"measurement": "IC50", "setting": "second compound 0.316 µM", "result": 4.89, "unit": "µM"}, {"measurement": "IC50", "setting": "second compound 1 µM", "result": 4.58, "unit": "µM"}, {"measurement": "viability, T/C", "setting": "second compound 0.00316 µM, first compound 0.0316 µM", "result": 95.6, "unit": "%"}, {"measurement": "viability, T/C", "setting": "second compound 0.00316 µM, first compound 0.1 µM", "result": 105, "unit": "%"}, {"measurement": "viability, T/C", "setting": "second compound 0.00316 µM, first compound 0.316 µM", "result": 125, "unit": "%"}, {"measurement": "viability, T/C", "setting": "second compound 0.00316 µM, first compound 1 µM", "result": 117, "unit": "%"}, {"measurement": "viability, T/C", "setting": "second compound 0.00316 µM, first compound 3.16 µM", "result": 120, "unit": "%"}, {"measurement": "viability, T/C", "setting": "second compound 0.00316 µM, first compound 10 µM", "result": 2.95, "unit": "%"}, {"measurement": "viability, T/C", "setting": "second compound 0.01 µM, first compound 0.0316 µM", "result": 113, "unit": "%"}, {"measurement": "viability, T/C", "setting": "second compound 0.01 µM, first compound 0.1 µM", "result": 118, "unit": "%"}, {"measurement": "viability, T/C", "setting": "second compound 0.01 µM, first compound 0.316 µM", "result": 121, "unit": "%"}, {"measurement": "viability, T/C", "setting": "second compound 0.01 µM, first compound 1 µM", "result": 125, "unit": "%"}, {"measurement": "viability, T/C", "setting": "second compound 0.01 µM, first compound 3.16 µM", "result": 132, "unit": "%"}, {"measurement": "viability, T/C", "setting": "second compound 0.01 µM, first compound 10 µM", "result": 3.03, "unit": "%"}, {"measurement": "viability, T/C", "setting": "second compound 0.0316 µM, first compound 0.0316 µM", "result": 105, "unit": "%"}, {"measurement": "viability, T/C", "setting": "second compound 0.0316 µM, first compound 0.1 µM", "result": 103, "unit": "%"}, {"measurement": "viability, T/C", "setting": "second compound 0.0316 µM, first compound 0.316 µM", "result": 110, "unit": "%"}, {"measurement": "viability, T/C", "setting": "second compound 0.0316 µM, first compound 1 µM", "result": 119, "unit": "%"}, {"measurement": "viability, T/C", "setting": "second compound 0.0316 µM, first compound 3.16 µM", "result": 114, "unit": "%"}, {"measurement": "viability, T/C", "setting": "second compound 0.0316 µM, first compound 10 µM", "result": 3.59, "unit": "%"}, {"measurement": "viability, T/C", "setting": "second compound 0.1 µM, first compound 0.0316 µM", "result": 91.9, "unit": "%"}, {"measurement": "viability, T/C", "setting": "second compound 0.1 µM, first compound 0.1 µM", "result": 81.2, "unit": "%"}, {"measurement": "viability, T/C", "setting": "second compound 0.1 µM, first compound 0.316 µM", "result": 102, "unit": "%"}, {"measurement": "viability, T/C", "setting": "second compound 0.1 µM, first compound 1 µM", "result": 107, "unit": "%"}, {"measurement": "viability, T/C", "setting": "second compound 0.1 µM, first compound 3.16 µM", "result": 111, "unit": "%"}, {"measurement": "viability, T/C", "setting": "second compound 0.1 µM, first compound 10 µM", "result": 4.35, "unit": "%"}, {"measurement": "viability, T/C", "setting": "second compound 0.316 µM, first compound 0.0316 µM", "result": 82.3, "unit": "%"}, {"measurement": "viability, T/C", "setting": "second compound 0.316 µM, first compound 0.1 µM", "result": 86.5, "unit": "%"}, {"measurement": "viability, T/C", "setting": "second compound 0.316 µM, first compound 0.316 µM", "result": 87.9, "unit": "%"}, {"measurement": "viability, T/C", "setting": "second compound 0.316 µM, first compound 1 µM", "result": 99.2, "unit": "%"}, {"measurement": "viability, T/C", "setting": "second compound 0.316 µM, first compound 3.16 µM", "result": 78.9, "unit": "%"}, {"measurement": "viability, T/C", "setting": "second compound 0.316 µM, first compound 10 µM", "result": 2.7, "unit": "%"}, {"measurement": "viability, T/C", "setting": "second compound 1 µM, first compound 0.0316 µM", "result": 75.5, "unit": "%"}, {"measurement": "viability, T/C", "setting": "second compound 1 µM, first compound 0.1 µM", "result": 75.4, "unit": "%"}, {"measurement": "viability, T/C", "setting": "second compound 1 µM, first compound 0.316 µM", "result": 76.3, "unit": "%"}, {"measurement": "viability, T/C", "setting": "second compound 1 µM, first compound 1 µM", "result": 61.3, "unit": "%"}, {"measurement": "viability, T/C", "setting": "second compound 1 µM, first compound 3.16 µM", "result": 74.7, "unit": "%"}, {"measurement": "viability, T/C", "setting": "second compound 1 µM, first compound 10 µM", "result": 2.07, "unit": "%"}]}]}
